What was measured:
recombinant MARK4 = molecular target: T1, recombinant MARK4 (Homo sapiens, UniProt Q96L34); assay: Isothermal titration calorimetry; assay type: binding; details: for Kd: read-out: Ka (converted); for ITC binding in words: at lower stoichiometry, at high concentration they precipitate with MARK4
T1 construct: made in house; host or cells: bacterial cells (Luria-Bertani broth, IPTG induction)
T1 sequence (Q96L34 1-752): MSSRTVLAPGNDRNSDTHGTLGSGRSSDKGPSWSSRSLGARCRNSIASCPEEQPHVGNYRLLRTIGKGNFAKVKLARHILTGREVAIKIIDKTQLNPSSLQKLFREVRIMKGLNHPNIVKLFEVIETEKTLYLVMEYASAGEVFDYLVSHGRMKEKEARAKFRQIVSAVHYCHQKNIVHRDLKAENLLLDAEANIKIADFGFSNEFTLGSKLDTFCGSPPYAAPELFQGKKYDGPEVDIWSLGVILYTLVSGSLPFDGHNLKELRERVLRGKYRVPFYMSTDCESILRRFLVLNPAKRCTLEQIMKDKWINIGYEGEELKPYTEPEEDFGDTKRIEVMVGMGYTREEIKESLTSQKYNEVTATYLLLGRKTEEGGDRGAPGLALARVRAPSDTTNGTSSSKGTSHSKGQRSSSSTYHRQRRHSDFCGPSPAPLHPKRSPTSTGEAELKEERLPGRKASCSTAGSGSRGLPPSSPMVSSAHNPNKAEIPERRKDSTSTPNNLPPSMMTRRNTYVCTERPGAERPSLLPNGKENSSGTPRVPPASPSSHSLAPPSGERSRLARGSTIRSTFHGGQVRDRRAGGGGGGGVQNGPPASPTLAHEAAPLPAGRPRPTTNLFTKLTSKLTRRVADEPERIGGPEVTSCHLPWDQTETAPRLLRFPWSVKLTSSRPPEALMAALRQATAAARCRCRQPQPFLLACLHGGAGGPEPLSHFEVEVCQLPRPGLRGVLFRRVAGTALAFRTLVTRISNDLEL
From the text: In order to measure the actual binding affinity and stoichiometry of selected compounds with the recombinant MARK4, isothermal titration calorimetry (ITC) has been carried out. Negative heat impulses in the upper panel of each isotherm indicate exothermic nature of binding. The amount of heat produced as a result of each injection helps to deliver the molar ratio of studied compound to that of MARK4. Thermodynamic parameters associated with binding of MARK4-compounds (Ka, binding constant and ΔH, enthalpy change) are shown in Table 1.
Figure 5 ITC measurement showing the titration of selected acridone derivatives with recombinant MARK4. (Top) Raw data plot of heat produced against time for the titration of 1000–1500 µM (A) compound 7b, (B) compound 7d, (C) compound 7f, into 20–25 µM MARK4. (Bottom) Corresponding binding isotherm obtained after integration of peak area and normalization to yield a plot of molar enthalpy change against each compound-MARK4 ratio.
ITC experiments were performed on a VP-ITC microcalorimeter (MicroCal, Inc. GE, MicroCal, USA) by following our previously published protocols[41],[47]. For sample preparation, recombinant MARK4 was extensively dialyzed in 20 mM Tris buffer, pH 8.5 and the working solutions of acridone derivatives were prepared in last dialyzing buffer. The titration data so obtained was analyzed with the help of MicroCal Origin 7.0 software provided with the instrument. The thermodynamic parameters of binding such as association constant (Ka), stoichiometry of binding (n), and enthalpy change (ΔH) were determined by fitting the binding isotherm into the ‘one-set of sites’ binding model.

HepG2 cells = assay: MTT cell viability assay, HepG2; assay type: cell-based; details: Homo sapiens, Table S2
Procedure: Initially, all synthesized acridone derivatives were evaluated for their cytotoxicity potential on MCF-7, HepG2 and HEK293 cell lines by MTT assay. These synthesized acridone derivatives were screened in the concentration range of 0–200 µM, for 24 and 48 h. […] It was also interesting that in the studied […] concentration range these compounds don’t show considerable cytotoxicity towards HEK293 cell lines. […] Thus, compounds 5, 7b, 7d, 7f and 7h were taken for further cell based studies such as apoptosis and reactive oxygen species (ROS) production.
To study the effect of synthesized acridone derivatives on cell viability and proliferation, a standard MTT method was carried out. Cells were plated (8000–9000/well) in a 96-well plate and incubated overnight. On the next day, cells were treated with increasing concentrations (0.1–80 μM) of synthesized acridone derivatives in a final volume of 200 µl for 48 h at 37 °C in a humidified chamber. At the end of treatment time point, 20 µl of MTT solution (from 5 mg/ml stock solution in phosphate buffer saline, pH 7.4) was added to each well and incubated further for 4–5 h at 37 °C in the CO2 incubator. After stipulated time the supernatant was aspirated and the colored formazan crystal produced as a result of MTT reduction was dissolved in 100 µl of DMSO. The absorbance (A) of colored product was then measured at 570 nm on a multiplate ELISA reader (BioRad). The percentage of viable cells was calculated and used to estimate the IC50 (50% inhibitory concentration) values for each acridone derivative. For cell proliferation studies paclitaxel has been taken as positive control.

Kd (recombinant MARK4; from ITC, single-site fitting) [µM] | IC50 (HepG2 cells) [µM] | ΔH (recombinant MARK4; from ITC, single-site fitting) | ITC binding in words (recombinant MARK4) | Structure (SMILES)
15.6 | 13.6 |  |  | Cc1ccc2c(c1)c(=O)c1ccccc1n2CC(=O)NCc1ccccc1 [Compound 7b, N-benzyl-2-(2-methyl-9-oxoacridin-10(9H)-yl)acetamide]
15.8 | 15.1 |  |  | COc1ccc(CNC(=O)Cn2c3ccccc3c(=O)c3cc(C)ccc32)cc1 [Compound 7d, N-(4-methoxybenzyl)-2-(2-methyl-9-oxoacridin-10(9H)-yl)acetamide]
7.41 | 15.2 | −3.01 × 10^4 ± 590.10 cal/mol |  | Cc1ccc(NC(=O)Cn2c3ccccc3c(=O)c3cc(C)ccc32)cc1 [Compound 7f, 2-(2-Methyl-9-oxoacridin-10(9H)-yl)-N-(p-tolyl)acetamide]
 | 16.4 |  | do not show significant binding | COC(=O)Cn1c2ccccc2c(=O)c2cc(C)ccc21 [Compound 5, Methyl 2-(2-methyl-9-oxoacridin-10(9H)-yl)acetate]
 | 19 |  | do not show significant binding | COc1ccccc1NC(=O)Cn1c2ccccc2c(=O)c2cc(C)ccc21 [Compound 7h, N-(2-methoxyphenyl)-2-(2-methyl-9-oxoacridin-10(9H)-yl)acetamide]
